# What was measured:
# Human ABCB1 = biological target: T1, Human ABCB1 (Homo sapiens, UniProt P08183); test: Surface plasmon resonance binding to full-length ABCB1 (Biacore); settings: SPR; for Kd: CM5 chip, read-out: KD (equilibrium dissociation constant)
# T1 construct: Flag; purchased MedChemExpress HY-P703175; host or cells: HEK293
# Procedure: The human recombinant ABCB1 full-length protein (HEK293, Flag) (MedChemExpress, Monmouth Junction, NJ, USA; #HY-P703175) was coupled onto a CM5 sensor chip (Cytiva, Marlborough, MA, USA; #BR-1005-30) via carboxyl groups on the dextran. After incubation, a series of concentrations of compound 1 or 1a flowed through the protein–CM5 system. Binding was tested and analyzed using a Biacore K8 instrument (GE Healthcare, Chicago, IL, USA) and Biacore Insight evaluation software (https://www.cytivalifesciences.com/en/us, accessed on 5 August 2025) (Cytiva, Marlborough, MA, USA).
# P-gp [1] = test: Western blotting of P-gp expression in HepG2/Dox cells; type: cell-based, Human; settings: alone or in combination with paclitaxel
# Procedure: (§1) In 100 mm culture dishes, 1 × 10^6 cells in 10 mL medium were seeded and incubated for 24 h, and then incubated with the test sample in 10 mL fresh medium for another 24 h. Total proteins were extracted using RIPA cell lysis buffer containing PMSF while protein content was determined using the BCA kit. An equal amount of the protein sample was subjected to SDS-PAGE for separation and transferred to PVDF membranes. The membranes were blocked in 5% defat milk at RT for 1 h, and then incubated with the primary antibody of the protein of interest (P-gp, caspase 8 or caspase 9) or GAPDH (internal standard) at 4 °C overnight, and then with the secondary antibody at RT for 1 h. Protein bands were detected under the chemiluminescence scanner, while Image J was employed to analyze the gray value of the protein bands.
# caspase 8 = test: Western blotting of caspase 8 expression in HepG2/Dox cells; type: cell-based, Human
# Procedure: as §1
# caspase 9 = test: Western blotting of caspase 9 expression in HepG2/Dox cells; type: cell-based, Human
# Procedure: as §1
# HepG2/Dox cells [2] = test: Annexin V/PI apoptosis by flow cytometry in HepG2/Dox cells; type: cell-based, Human; settings: 24 h; for Apoptosis rates of HepG2/Dox cells: 10 μM in combination with 500 nM paclitaxel, vs PTX alone
# Procedure: Cells were then incubated for another 24 h in 2 mL fresh medium containing the test samples. The medium and cells (digested by EDTA-free trypsin) were collected and centrifuged (1000 rpm, 5 min). The cells were then suspended in PBS and stained using the Annexin V/PI kit by following the procedures provided with the kit, and the apoptosis rate of cells with different treatments was analyzed using flow cytometry.
# P-gp [3] = biological target: T2, P-gp (Homo sapiens, UniProt P08183); test: Rhodamine 123 efflux assay for P-gp function in HepG2/Dox cells; type: cell-based; settings: 10 μM, 5 μM Rh-123, 40 min; vs Rh-123 alone
# T2 construct: Doxorubicin-induced P-gp overexpression HepG2/Dox subline was a gift from Prof; Fong; endogenous in cells; host or cells: HepG2/Dox (doxorubicin-induced P-gp-overexpressing subline of HepG2)
# T2 sequence (P08183 whole entry): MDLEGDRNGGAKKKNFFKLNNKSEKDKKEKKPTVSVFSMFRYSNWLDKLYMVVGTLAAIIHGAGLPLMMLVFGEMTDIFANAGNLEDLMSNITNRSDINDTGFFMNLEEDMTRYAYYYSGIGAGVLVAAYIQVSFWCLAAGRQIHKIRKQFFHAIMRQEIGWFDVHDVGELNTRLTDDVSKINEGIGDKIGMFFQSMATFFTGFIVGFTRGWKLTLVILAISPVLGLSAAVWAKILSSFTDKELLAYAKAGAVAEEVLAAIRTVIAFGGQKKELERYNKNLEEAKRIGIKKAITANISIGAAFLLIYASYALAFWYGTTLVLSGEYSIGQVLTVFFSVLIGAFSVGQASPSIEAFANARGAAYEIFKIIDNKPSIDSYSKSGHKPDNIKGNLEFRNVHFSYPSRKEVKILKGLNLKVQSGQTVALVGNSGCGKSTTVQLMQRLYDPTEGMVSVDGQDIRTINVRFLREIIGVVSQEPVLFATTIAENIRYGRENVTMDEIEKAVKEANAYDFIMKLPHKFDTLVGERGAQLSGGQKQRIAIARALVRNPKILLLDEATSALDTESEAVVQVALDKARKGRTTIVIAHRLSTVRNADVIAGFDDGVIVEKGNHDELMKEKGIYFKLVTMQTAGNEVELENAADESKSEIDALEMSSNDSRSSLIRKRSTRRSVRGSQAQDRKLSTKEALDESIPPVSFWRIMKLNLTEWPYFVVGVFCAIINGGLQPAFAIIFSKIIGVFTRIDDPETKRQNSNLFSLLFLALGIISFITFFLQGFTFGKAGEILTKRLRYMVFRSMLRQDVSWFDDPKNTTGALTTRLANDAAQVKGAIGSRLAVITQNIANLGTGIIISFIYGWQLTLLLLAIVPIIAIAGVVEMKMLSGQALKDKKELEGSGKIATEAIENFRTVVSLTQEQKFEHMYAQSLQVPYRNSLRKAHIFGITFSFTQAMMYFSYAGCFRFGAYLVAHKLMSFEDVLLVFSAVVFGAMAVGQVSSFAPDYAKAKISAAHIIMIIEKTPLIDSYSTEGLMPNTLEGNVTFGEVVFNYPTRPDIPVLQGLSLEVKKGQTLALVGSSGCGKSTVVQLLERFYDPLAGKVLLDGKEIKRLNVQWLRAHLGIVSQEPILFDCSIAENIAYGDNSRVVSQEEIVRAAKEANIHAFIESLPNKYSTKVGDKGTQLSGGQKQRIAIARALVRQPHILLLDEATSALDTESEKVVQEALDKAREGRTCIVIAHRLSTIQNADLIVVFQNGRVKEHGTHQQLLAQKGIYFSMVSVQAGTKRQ
# Procedure: After removal of the medium via centrifugation, the cells were washed with ice-cold PBS twice, resuspended in 300 μL ice-cold PBS, and transferred into flow cytometer tubes. Cellular fluorescence intensity was analyzed immediately using flow cytometry.
# HepG2/Dox cells [4] = test: CCK-8 cell viability / reversal of P-gp-mediated MDR in HepG2/Dox cells; type: cell-based, Human; settings: for Cytotoxicity to HepG2/Dox cells (viability): compound alone at 5 or 10 μM; for Cytotoxicity to HepG2/Dox cells (viability) / IC50: 48 h; for Reversal of resistance of HepG2/Dox cells to paclitaxel and vinblastine: non-cytotoxic concentrations (10 μM); for IC50: Homo sapiens, HepG2/Dox, anticancer drug alone, CCK-8, read-out: IC50 ± SD HepG2/Dox; for Fsen (fold increase in sensitivity): drug alone (reference); for Fres (fold of resistance): drug alone, IC50 in HepG2/Dox / IC50 in HepG2
# Caco-2 cell monolayers = test: Bidirectional transport assay on Caco-2 cell monolayers; settings: from ER values of less than 2
# [5] = as above; settings: human; for Papp B→A at 2 h: Caco-2, pH 7.4; for Papp A→B at 2 h, 2 μM: Caco-2, pH 7.4, Apparent permeability coefficient (Papp) from AP to BL; for Papp A→B at 2 h: Caco-2, pH 7.4, A→B Transport Papp, pH 7.40; for Papp A→B at 2 h / recovery at 2 h: compound 1, 1a 2 μM, digoxin 10 μM
# [6] = 10 μM combined with paclitaxel 0.5 μM
# [7] = alone: paclitaxel 0.5 μM, compound 1 or 1a 10 μM
# [8] = Caco-2, pH 7.4, A→B Transport Solution Recovery %
# [9] = Caco-2, pH 7.4, B→A Transport Solution Recovery %
# T1 sequence (P08183 whole entry): as above
smiles,measurement,setting,value
"CC(O)C1(O)CCC2(O)C3CCC4CC(O)CCC4(C)C3CC(OC(=O)C=Cc3ccccc3)C12C [Compound 1, 3β,12β,14β,17β,20(S)-pentahydroxy-5α-pregnan-12β-O-(E)-cinnamate]",Ka (association rate constant),Human ABCB1,65800 M⁻¹ s⁻¹
same,Kd (dissociation rate constant),Human ABCB1,0.364 s⁻¹
same,Kd,Human ABCB1,5.53 µM
same,Ka (association rate constant),Human ABCB1; listed as compound 1,> 10^4 M^−1s^−1
same,Kd (dissociation rate constant),Human ABCB1; listed as compound 1,> 10^−1 s^−1
same,Expression level of cellular P-gp,P-gp [1],did not influence
same,Expression of caspase 8,caspase 8; [6],did not change
same,Expression of caspase 8,caspase 8; [7],did not change
same,Expression of caspase 9,caspase 9; [6],significantly upregulated
same,Expression of caspase 9,caspase 9; [7],did not change
same,Apoptosis rates of HepG2/Dox cells,HepG2/Dox cells [2],significantly increased
same,Fluorescence intensity of Rh-123 in cells (inhibited efflux),P-gp [3],significantly increased
same,Cytotoxicity to HepG2/Dox cells (viability),HepG2/Dox cells [4],non-cytotoxic
same,Fres to doxorubicin,HepG2/Dox cells [4]; doxorubicin + modulator 5 µM,13.7
same,Fsen to doxorubicin,HepG2/Dox cells [4]; doxorubicin + modulator 5 µM,2.6
same,Fres to doxorubicin,HepG2/Dox cells [4]; doxorubicin + modulator 10 µM,5.0
same,Fsen to doxorubicin (reversal fold),HepG2/Dox cells [4]; doxorubicin + modulator 10 µM,7.1
same,Reversal of resistance of HepG2/Dox cells to paclitaxel and vinblastine,HepG2/Dox cells [4],completely reversed
same,Fres to paclitaxel,HepG2/Dox cells [4]; paclitaxel + modulator 5 µM,3.9
same,Fsen to paclitaxel,HepG2/Dox cells [4]; paclitaxel + modulator 5 µM,33.6
same,Fres to paclitaxel,HepG2/Dox cells [4]; paclitaxel + modulator 10 µM,1.1
same,Fsen to paclitaxel (reversal fold),HepG2/Dox cells [4]; paclitaxel + modulator 10 µM,118.5
same,Fres to vinblastine,HepG2/Dox cells [4]; vinblastine + modulator 5 µM,1.5
same,Fsen to vinblastine,HepG2/Dox cells [4]; vinblastine + modulator 5 µM,91.5
same,Fres to vinblastine,HepG2/Dox cells [4]; vinblastine + modulator 10 µM,0.7
same,Fsen to vinblastine (reversal fold),HepG2/Dox cells [4]; vinblastine + modulator 10 µM,198.3
same,P-gp substrate status,Caco-2 cell monolayers,not P-gp substrates
same,Papp B→A at 2 h,[5],7.71 ± 0.61 ×10⁻⁶ cm/s
same,"Papp A→B at 2 h, 2 μM",[5],9.28 ×10⁻⁶ cm/s
same,Papp A→B at 2 h,[5],9.28 ± 0.88 ×10⁻⁶ cm/s
same,recovery at 2 h,[5]; [8],44.6 ± 2.3%
same,recovery at 2 h,[5]; [9],50.4 ± 1.7%
"CC(O)C1(O)CCC2(O)C3CCC4CC(OC(=O)c5cccnc5)CCC4(C)C3CC(OC(=O)C=Cc3ccccc3)C12C [Compound 1a, 3β,12β,14β,17β,20(S)-pentahydroxy-5α-pregnan-3β-O-nicotinate-12β-O-(E)-cinnamate]",Ka (association rate constant),Human ABCB1,41600 M⁻¹ s⁻¹
same,Kd (dissociation rate constant),Human ABCB1,0.155 s⁻¹
same,Kd,Human ABCB1,3.72 µM
same,Ka (association rate constant),Human ABCB1; listed as compound 1a,> 10^4 M^−1s^−1
same,koff,Human ABCB1; read-out: Kd (dissociation rate constant),> 0.1 s⁻¹
same,Expression level of cellular P-gp,P-gp [1],did not influence
same,Expression of caspase 8,caspase 8; [6],did not change
same,Expression of caspase 8,caspase 8; [7],did not change
same,Expression of caspase 9,caspase 9; [6],significantly upregulated
same,Expression of caspase 9,caspase 9; [7],did not change
same,Apoptosis rates of HepG2/Dox cells,HepG2/Dox cells [2],significantly increased
same,Fluorescence intensity of Rh-123 in cells (inhibited efflux),P-gp [3],significantly increased
same,Cytotoxicity to HepG2/Dox cells (viability),HepG2/Dox cells [4],non-cytotoxic
same,Fres to doxorubicin,HepG2/Dox cells [4]; doxorubicin + modulator 5 µM,1.9
same,Fsen to doxorubicin,HepG2/Dox cells [4]; doxorubicin + modulator 5 µM,18.8
same,Fres to doxorubicin,HepG2/Dox cells [4]; doxorubicin + modulator 10 µM,4.1
same,Fsen to doxorubicin (reversal fold),HepG2/Dox cells [4]; doxorubicin + modulator 10 µM,18.8
same,Fsen to doxorubicin (reversal fold),"HepG2/Dox cells [4]; doxorubicin + modulator 10 µM, listed as compound 1a",8.6
same,Reversal of resistance of HepG2/Dox cells to paclitaxel and vinblastine,HepG2/Dox cells [4],completely reversed
same,Fres to paclitaxel,HepG2/Dox cells [4]; paclitaxel + modulator 5 µM,0.8
same,Fsen to paclitaxel,HepG2/Dox cells [4]; paclitaxel + modulator 5 µM,155.0
same,Fres to paclitaxel,HepG2/Dox cells [4]; paclitaxel + modulator 10 µM,0.4
same,Fsen to paclitaxel (reversal fold),HepG2/Dox cells [4]; paclitaxel + modulator 10 µM,335.8
same,Fres to vinblastine,HepG2/Dox cells [4]; vinblastine + modulator 5 µM,1.8
same,Fsen to vinblastine,HepG2/Dox cells [4]; vinblastine + modulator 5 µM,79.3
same,Fres to vinblastine,HepG2/Dox cells [4]; vinblastine + modulator 10 µM,1.0
same,Fsen to vinblastine (reversal fold),HepG2/Dox cells [4]; vinblastine + modulator 10 µM,140
same,P-gp substrate status,Caco-2 cell monolayers,not P-gp substrates
same,Papp B→A at 2 h,[5],0.24 ± 0.02 ×10⁻⁶ cm/s
same,"Papp A→B at 2 h, 2 μM",[5],0.27 ×10⁻⁶ cm/s
same,Papp A→B at 2 h,[5],0.27 ± 0.03 ×10⁻⁶ cm/s
same,recovery at 2 h,[5]; [8],5.3 ± 0.5%
same,recovery at 2 h,[5]; [9],12.2 ± 0.7%
"C[C@H]1O[C@@H](O[C@H]2[C@@H](O)C[C@H](O[C@H]3[C@@H](O)C[C@H](O[C@H]4CC[C@@]5(C)[C@H](CC[C@@H]6[C@@H]5C[C@@H](O)[C@]5(C)[C@@H](C7=CC(=O)OC7)CC[C@]65O)C4)O[C@@H]3C)O[C@@H]2C)C[C@H](O)[C@@H]1O [Digoxin, reference compound]",Papp B→A at 2 h,[5],22.3 ± 1.02 ×10⁻⁶ cm/s
same,Papp A→B at 2 h,[5],0.12 ± 0.02 ×10⁻⁶ cm/s
same,recovery at 2 h,[5]; [8],97.9 ± 8.1%
same,recovery at 2 h,[5]; [9],94.4 ± 1.9%
"COc1cccc2c1C(=O)c1c(O)c3c(c(O)c1C2=O)C[C@@](O)(C(=O)CO)C[C@@H]3O[C@H]1C[C@H](N)[C@H](O)[C@H](C)O1 [Doxorubicin, reference compound]",IC50,HepG2/Dox cells [4],6.03 ± 1.15 µM
same,Fsen (fold increase in sensitivity),HepG2/Dox cells [4],1
same,Fres (fold of resistance),HepG2/Dox cells [4],35.5
"CC(=O)O[C@H]1C(=O)[C@@]2(C)[C@H]([C@H](OC(=O)c3ccccc3)[C@]3(O)C[C@H](OC(=O)[C@H](O)[C@@H](NC(=O)c4ccccc4)c4ccccc4)C(C)=C1C3(C)C)[C@]1(OC(C)=O)CO[C@@H]1C[C@@H]2O [Paclitaxel, reference compound]",Expression of caspase 8,caspase 8; [7],did not change
same,Expression of caspase 9,caspase 9; [7],did not change
same,Cell apoptosis in HepG2/Dox cells,HepG2/Dox cells [2]; 500 nM alone,did not induce cell apoptosis
same,IC50,HepG2/Dox cells [4],4.03 ± 0.06 µM
"COc1ccc(CCN(C)CCCC(C#N)(c2ccc(OC)c(OC)c2)C(C)C)cc1OC (stereo not drawn) [VRP, Verapamil, reference compound]",Apoptosis rates of HepG2/Dox cells,HepG2/Dox cells [2],significantly increased
same,Fres to doxorubicin,HepG2/Dox cells [4]; doxorubicin + modulator 10 µM,1.1
same,Fres to paclitaxel,HepG2/Dox cells [4]; paclitaxel + modulator 10 µM,1.3
same,Fres to vinblastine,HepG2/Dox cells [4]; vinblastine + modulator 10 µM,2.1
"CC[C@]1(O)C[C@@H]2CN(CCc3c([nH]c4ccccc34)[C@@](C(=O)OC)(c3cc4c(cc3OC)N(C)[C@H]3[C@@](O)(C(=O)OC)[C@H](OC(C)=O)[C@]5(CC)C=CCN6CC[C@]43[C@@H]65)C2)C1 [Vinblastine, reference compound]",IC50,HepG2/Dox cells [4],2.38 ± 0.62 µM
same,Fsen (fold increase in sensitivity),HepG2/Dox cells [4],1
same,Fres (fold of resistance),HepG2/Dox cells [4],140.0
same,Fres (fold of resistance),HepG2/Dox cells [4]; listed as vinblastine,140
